Assay results from ChEMBL document CHEMBL1828558, “Discovery of (+)-N-(3-aminopropyl)-N-[1-(5-benzyl-3-methyl-4-oxo-[1,2]thiazolo[5,4-d]pyrimidin-6-yl)-2-methylpropyl]-4-methylbenzamide (AZD4877), a kinesin spindle protein inhibitor and potential anticancer agent” (J Med Chem, 2011).
≈ marks a conversion by molar mass, not a printed value. One block for each compound: values may come before it. Calls of active or inactive are those of the source. No cut-off for these calls is given here.

Tests used:
[1] = Aqueous solubility of the compound in 0.1 M phosphate buffer at pH 7.4 after 24 hrs by HPLC-UV method; format: physicochemical
COLO 205 = assay: Anticancer activity against human COLO205 cells after 72 hrs by MTS/PMS assay; format: functional, cell-based
[2] = molecular target: T1, Kinesin-like protein KIF11 (Homo sapiens, UniProt P52732); assay: Inhibition of human recombinant C-terminal His6-tagged KSP ATPase activity after 1 hr by malachite green assay
T1 sequence (P52732 whole entry): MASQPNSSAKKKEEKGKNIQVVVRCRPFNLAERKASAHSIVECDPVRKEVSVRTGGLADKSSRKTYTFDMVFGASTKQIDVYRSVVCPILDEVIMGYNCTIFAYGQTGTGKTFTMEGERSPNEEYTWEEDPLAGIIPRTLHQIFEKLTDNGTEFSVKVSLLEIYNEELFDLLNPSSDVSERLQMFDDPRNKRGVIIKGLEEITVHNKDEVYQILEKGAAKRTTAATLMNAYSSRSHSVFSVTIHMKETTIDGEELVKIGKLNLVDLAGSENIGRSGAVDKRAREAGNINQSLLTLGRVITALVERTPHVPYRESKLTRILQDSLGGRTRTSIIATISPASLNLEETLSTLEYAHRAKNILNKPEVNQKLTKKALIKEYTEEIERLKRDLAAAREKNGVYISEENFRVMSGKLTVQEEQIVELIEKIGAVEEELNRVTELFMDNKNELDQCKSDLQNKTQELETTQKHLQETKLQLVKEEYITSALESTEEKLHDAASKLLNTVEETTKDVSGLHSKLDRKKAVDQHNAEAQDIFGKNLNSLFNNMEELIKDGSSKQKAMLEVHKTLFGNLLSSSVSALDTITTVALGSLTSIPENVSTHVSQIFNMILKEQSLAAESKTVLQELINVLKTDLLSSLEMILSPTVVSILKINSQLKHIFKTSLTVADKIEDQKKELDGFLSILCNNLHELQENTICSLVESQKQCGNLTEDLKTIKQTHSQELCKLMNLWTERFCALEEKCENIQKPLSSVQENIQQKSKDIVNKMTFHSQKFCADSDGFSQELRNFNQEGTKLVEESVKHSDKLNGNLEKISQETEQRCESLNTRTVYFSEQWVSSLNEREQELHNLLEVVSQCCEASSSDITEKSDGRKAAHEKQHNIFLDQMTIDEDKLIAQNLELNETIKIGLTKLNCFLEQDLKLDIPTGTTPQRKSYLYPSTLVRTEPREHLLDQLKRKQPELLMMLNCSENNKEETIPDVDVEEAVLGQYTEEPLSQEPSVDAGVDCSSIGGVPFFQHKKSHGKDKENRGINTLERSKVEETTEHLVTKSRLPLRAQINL

[3] = Clearance in nude mouse; format: ADME, organism-based; details: in vivo
Rattus norvegicus [4] = assay: Increase of phospho-histone-H3 positive cells in Hans Wistar rat hollow fiber model implanted with human COLO205 cells at 12 mg/kg, iv after 24 hrs; format: functional, organism-based; design: dose 12 mg/kg; details: COLO 205
Rattus norvegicus [5] = assay: Increase in caspase 3 activation in Hans Wistar rat hollow fiber model implanted with human COLO205 cells at 12 mg/kg, iv after 48 hrs; format: functional, organism-based; design: dose 12 mg/kg; details: COLO 205
Cavia porcellus [6] = species on record: Cavia porcellus; assay: Binding affinity to L-type calcium channel phenylalkylamine binding site in guinea pig ileum at 10 uM by radioligand displacement assay; format: tissue-based
[7] = molecular target: Ribosomal protein S6 kinase alpha-1 (Homo sapiens) (UniProt Q15418); assay: Inhibition of MAPKAP-K1a at 10 uM
Sequence of Ribosomal protein S6 kinase alpha-1 (Homo sapiens) (Q15418 whole entry): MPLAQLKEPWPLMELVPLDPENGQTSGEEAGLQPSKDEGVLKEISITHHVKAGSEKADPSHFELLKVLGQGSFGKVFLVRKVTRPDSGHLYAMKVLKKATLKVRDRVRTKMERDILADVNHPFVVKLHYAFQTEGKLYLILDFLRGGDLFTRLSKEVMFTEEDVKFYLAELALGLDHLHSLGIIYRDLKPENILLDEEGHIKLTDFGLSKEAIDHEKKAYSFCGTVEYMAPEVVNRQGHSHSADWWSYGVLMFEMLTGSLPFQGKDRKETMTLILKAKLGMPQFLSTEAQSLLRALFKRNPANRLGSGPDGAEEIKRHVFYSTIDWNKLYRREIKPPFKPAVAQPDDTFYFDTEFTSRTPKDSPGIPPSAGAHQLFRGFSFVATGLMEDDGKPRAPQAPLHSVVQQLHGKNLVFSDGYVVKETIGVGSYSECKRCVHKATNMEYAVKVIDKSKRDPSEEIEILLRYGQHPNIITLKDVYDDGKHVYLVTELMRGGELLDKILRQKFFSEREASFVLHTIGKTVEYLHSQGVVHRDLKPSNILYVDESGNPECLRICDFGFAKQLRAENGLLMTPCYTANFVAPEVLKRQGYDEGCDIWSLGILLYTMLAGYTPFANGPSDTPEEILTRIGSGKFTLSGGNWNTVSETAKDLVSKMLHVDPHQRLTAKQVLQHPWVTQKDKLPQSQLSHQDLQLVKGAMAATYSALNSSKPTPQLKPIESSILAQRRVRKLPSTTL

Cavia porcellus [8] = species on record: Cavia porcellus; assay: Binding affinity to L-type calcium channel benzothiazepine binding site in guinea pig ileum at 10 uM by radioligand displacement assay; format: tissue-based
Rattus norvegicus [9] = assay: Increase monasters formation in Hans Wistar rat hollow fiber model implanted with human COLO205 cells at 6 mg/kg, iv after 24 hrs; format: functional, organism-based; design: dose 6 mg/kg; details: COLO 205
Rattus norvegicus [10] = assay: Increase monasters formation in Hans Wistar rat hollow fiber model implanted with human COLO205 cells at 12 mg/kg, iv after 24 hrs; format: functional, organism-based; design: dose 12 mg/kg; details: COLO 205
Rattus norvegicus [11] = assay: Increase of phospho-histone-H3 positive cells in Hans Wistar rat hollow fiber model implanted with human COLO205 cells at 6 mg/kg, iv after 24 hrs; format: functional, organism-based; design: dose 6 mg/kg; details: COLO 205
Cavia porcellus [12] = species on record: Cavia porcellus; assay: Binding affinity to sodium channel site 2 in guinea pig atria at 10 uM by radioligand displacement assay
[13] = molecular target: T2, Polyunsaturated fatty acid 5-lipoxygenase (Homo sapiens) (UniProt P09917); assay: Inhibition of human 5-lipoxygenase at 10 uM
T2 sequence (whole entry): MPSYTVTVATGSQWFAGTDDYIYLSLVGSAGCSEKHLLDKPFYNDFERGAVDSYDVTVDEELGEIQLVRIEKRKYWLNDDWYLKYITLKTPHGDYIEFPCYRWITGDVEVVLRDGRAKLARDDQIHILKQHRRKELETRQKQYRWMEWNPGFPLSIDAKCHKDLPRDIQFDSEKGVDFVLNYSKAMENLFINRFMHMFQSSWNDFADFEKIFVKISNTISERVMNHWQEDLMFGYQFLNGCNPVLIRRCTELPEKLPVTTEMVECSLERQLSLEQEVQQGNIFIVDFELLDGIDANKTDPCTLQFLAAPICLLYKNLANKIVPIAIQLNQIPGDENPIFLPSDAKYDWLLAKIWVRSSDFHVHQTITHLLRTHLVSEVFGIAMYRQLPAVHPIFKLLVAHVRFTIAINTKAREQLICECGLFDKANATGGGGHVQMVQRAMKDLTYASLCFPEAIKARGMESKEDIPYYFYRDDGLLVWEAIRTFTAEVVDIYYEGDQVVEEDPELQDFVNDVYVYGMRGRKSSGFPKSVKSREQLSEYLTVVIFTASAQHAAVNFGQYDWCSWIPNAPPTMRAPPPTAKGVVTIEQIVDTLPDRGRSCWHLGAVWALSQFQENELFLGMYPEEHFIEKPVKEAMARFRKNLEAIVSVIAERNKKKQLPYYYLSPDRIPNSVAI

Rattus norvegicus [14] = assay: Increase monasters formation in Hans Wistar rat hollow fiber model implanted with human COLO205 cells at 12 mg/kg, iv after 48 hrs; format: functional, organism-based; design: dose 12 mg/kg; details: COLO 205
Rattus norvegicus [15] = assay: Increase monasters formation in Hans Wistar rat hollow fiber model implanted with human COLO205 cells at 6 mg/kg, iv after 48 hrs; format: functional, organism-based; design: dose 6 mg/kg; details: COLO 205
Rattus norvegicus [16] = assay: Increase in caspase 3 activation in Hans Wistar rat hollow fiber model implanted with human COLO205 cells at 6 mg/kg, iv after 48 hrs; format: functional, organism-based; design: dose 6 mg/kg; details: COLO 205
[17] = molecular target: Somatostatin receptor type 1 (Homo sapiens) (UniProt P30872); assay: Binding affinity to human SST1 receptor at 10 uM by radioligand displacement assay
Sequence of Somatostatin receptor type 1 (Homo sapiens) (P30872 whole entry): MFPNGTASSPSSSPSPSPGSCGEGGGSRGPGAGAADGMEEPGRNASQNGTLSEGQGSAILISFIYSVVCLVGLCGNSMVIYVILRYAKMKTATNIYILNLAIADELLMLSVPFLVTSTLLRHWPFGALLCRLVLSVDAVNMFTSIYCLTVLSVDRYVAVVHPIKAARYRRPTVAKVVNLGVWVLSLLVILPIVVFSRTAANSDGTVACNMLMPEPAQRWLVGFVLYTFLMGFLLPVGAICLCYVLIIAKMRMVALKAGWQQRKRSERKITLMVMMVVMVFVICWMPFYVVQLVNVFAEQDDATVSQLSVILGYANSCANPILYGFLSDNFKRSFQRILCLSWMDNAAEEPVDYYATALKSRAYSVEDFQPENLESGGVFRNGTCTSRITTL

[18] = molecular target: Tyrosine-protein kinase Lck (Homo sapiens) (UniProt P06239); assay: Inhibition of LCK at 10 uM
Sequence of Tyrosine-protein kinase Lck (Homo sapiens) (P06239 2-509 limits assumed): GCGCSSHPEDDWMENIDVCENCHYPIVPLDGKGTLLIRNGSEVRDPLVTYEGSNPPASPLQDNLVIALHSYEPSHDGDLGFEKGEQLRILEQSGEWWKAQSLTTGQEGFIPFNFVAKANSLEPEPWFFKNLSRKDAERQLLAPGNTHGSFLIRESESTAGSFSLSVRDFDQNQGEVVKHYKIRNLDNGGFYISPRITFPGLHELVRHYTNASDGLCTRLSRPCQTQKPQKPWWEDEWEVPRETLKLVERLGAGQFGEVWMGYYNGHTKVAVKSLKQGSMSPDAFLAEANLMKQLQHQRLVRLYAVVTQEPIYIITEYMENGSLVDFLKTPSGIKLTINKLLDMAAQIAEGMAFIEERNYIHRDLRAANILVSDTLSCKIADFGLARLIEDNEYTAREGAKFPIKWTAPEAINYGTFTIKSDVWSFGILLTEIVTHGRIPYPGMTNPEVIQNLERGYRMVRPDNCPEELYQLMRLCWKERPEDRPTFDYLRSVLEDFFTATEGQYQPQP

SMILES: CCC(c1nc2snc(C)c2c(=O)n1Cc1ccccc1)N(CCCN)C(=O)c1ccc(C)cc1 (stereo in doubt; 62)
solubility at 24 h [1]: 1570 µM (≈ 770 µg/mL)
IC50 (COLO 205; colo 205): 4 nM
IC50 [2]: 3 nM

SMILES: CCC(c1nc2snc(C)c2c(=O)n1Cc1ccccc1)N(CCCN)C(=O)c1ccc(C)cc1 (stereo in doubt; 68)
IC50 (COLO 205; Homo sapiens, COLO 205, 72 h): 3 nM
clearance [3]: 50 mL/min/kg
IC50 [2]: 1 nM

SMILES: CCC(c1nc2ccsc2c(=O)n1Cc1ccccc1)N(CC1CNCCO1)C(=O)c1ccc(C)cc1 (centres undefined)
IC50 (COLO 205; Homo sapiens, COLO 205, 72 h): 720 nM
IC50 [2]: 310 nM

SMILES: Cc1ccc(C(=O)N(CCCN)C(c2nc3snc(C)c3c(=O)n2Cc2ccccc2)C(C)C)cc1 (single isomer, unassigned; (+))
Activity (Rattus norvegicus [4]): Active
Activity (Rattus norvegicus [5]): Active
inhibition (Cavia porcellus [6]): 76%
inhibition [7]: 35%
inhibition (Cavia porcellus [8]): 87%
Activity (Rattus norvegicus [9]): Active
Activity (Rattus norvegicus [10]): Active
Activity (Rattus norvegicus [11]): Active
inhibition (Cavia porcellus [12]): 99%
inhibition [13]: 71%
Activity (Rattus norvegicus [14]): Active
Activity (Rattus norvegicus [15]): Active
Activity (Rattus norvegicus [16]): Active
inhibition [17]: 80%
inhibition [18]: 42%

SMILES: CCC(c1nc2onc(C)c2c(=O)n1Cc1ccccc1)N(CCCN)C(=O)c1ccc(C)cc1 (centres undefined)
solubility at 24 h [1]: 69 µM (≈ 32.7 µg/mL)
IC50 (COLO 205; Homo sapiens, COLO 205, 72 h): 23 nM
IC50 [2]: 16 nM

SMILES: CCC(c1nc2ccsc2c(=O)n1Cc1cc(C)on1)N(CCCN)C(=O)c1ccc(C)cc1 (centres undefined)
IC50 (COLO 205; Homo sapiens, COLO 205, 72 h): 1710 nM
IC50 [2]: 630 nM

The next lines start with the values.

solubility at 24 h [1]: 1240 µM (≈ 588 µg/mL)
IC50 (COLO 205; colo 205): 30 nM
IC50 [2]: 8 nM
SMILES: CCC(c1nc2sccc2c(=O)n1Cc1ccccc1)N(CCCN)C(=O)c1ccc(C)cc1 (stereo in doubt; 56)

IC50 (COLO 205; Homo sapiens, COLO 205, 72 h): 330 nM
IC50 [2]: 20 nM
SMILES: CCC(c1nc2ccsc2c(=O)n1Cc1cccc(F)c1)N(CCCN)C(=O)c1ccc(C)cc1 (centres undefined)

IC50 (COLO 205; Homo sapiens, COLO 205, 72 h): 675 nM
IC50 [2]: 161 nM
SMILES: CCC(c1nc2sc(Cl)c(Br)c2c(=O)n1Cc1ccccc1)N(CCCN)C(=O)c1ccc(C)cc1 (centres undefined)

IC50 (COLO 205; Homo sapiens, COLO 205, 72 h): 570 nM
IC50 [2]: 140 nM
SMILES: CCC(c1nc2ccsc2c(=O)n1Cc1ccccc1)N(CCCN)C(=O)c1ccc(F)cc1 (centres undefined)

IC50 (COLO 205; Homo sapiens, COLO 205, 72 h): 160 nM
IC50 [2]: 30 nM
SMILES: CCC(c1nc2ccsc2c(=O)n1Cc1ccccc1)N(CCCN)C(=O)c1ccc(Br)cc1 (centres undefined)
